# Peptide text beside a SMILES is read from it. * marks the point of attachment. Boc = CC(C)(C)OC(=O)*; Bz = O=C(c1ccccc1)*; OBn = c1ccc(CO*)cc1; OAll = C=CCO*
# Legend:
# [1] = test system: pepper phytophthora blight (Phytopthora capsici); test: Suppression of pepper phytophthora blight on leaves; format: in vivo; settings: for Outbreak of the phytophthora blight on the leaves: drench-treated to the roots; for Lesion outbreak rate: pepper leaves; for Effect on suppressing the outbreak of pepper phytophthora blight or bacterial rot as compared with the non-treated control group: directly sprayed to the leaves
# Method: (§1) The peppers were raised in the same method as Example 3, and then, the test compounds were dissolved in 20% methanol to make a stock solution, and a stock was diluted to the concentrations of 0.1, 1.0, and 10.0 ppm. The test solutions were sprayed on the leaves or drench-treated on the leaves. After 7 days, the pathogen of plant bacterial rot (Pectobacterium carotovorum SCC1) was cultured in a TSA medium for 27 hours, and then, wetted on an 8 mm diameter paper disc in the concentration of 10^8 cfu/mL. The paper disc was located in the center of the leaves that were cut roundly, and then, after about 7 days, the lesion area was measured. In the case of phytophthora, the potato agar medium cultured with the phytophthora (Phytophthora capsici) was cut in the internal diameter size of 5 mm with a cork borer, and then inoculated to the leaves. After 7 days, the lesion area was observed. In the case of a bacterial rot, when Compounds 6, 89, 93, and 95 were sprayed on the pepper leaves, the bacterial rot was not found in the concentration of 1 or 10 ppm as compared with the non-treated group. […] The Suppression of lesion formation on the leaves when these compounds were drench-treated to the roots can be explained as it was resulted from that systemic disease resistance was induced in the whole plant. These test results are illustrated in the photographs of FIGS. 5 to 9.
# [2] = test system: tobacco bacterial rot (Pectobacterium carotovorum); test: Suppression of tobacco bacterial rot; format: in vivo, Pectobacterium carotovorum SCC1
# Method: A tobacco or cucumber was sown in a plastic pot with a diameter of 10 cm×13 cm, and then, 12 pots were added in a yellow box. After seeding, 100 μL was inoculated to the cotyledons of cucumber or tobacco, in which first leaf was started to come out. The test compounds were dissolved in 20% methanol to make a stock solution, and then, the stock solution was diluted to the concentrations of 1, 10, and 100 ppm.
# After 7 days, the pathogen of a plant bacterial rot (Pectobacterium carotovorum SCC1) was cultured in a TSA medium for 27 hours; and then, the cultured pathogen was sprayed in a concentration of 10^8 cfu/mL to the plant leaves, and cultured at 30° C. for 3 days. The plant anthracnose germ (Colletotrichum orbiculare) was cultured in a GBA (Green bean agar) medium to induce spores for about 2 to 3 weeks. The germ was sprayed in a concentration of 10^5 cell/mL and then cultured at 26° C. for 1 day. When fourth or fifth leaf came out, 200 μL of each of the test compounds was inoculated to third leaf. After 7 days, the pathogen of the plant bacterial rot was sprayed to the plant leaves in the concentration of 10^8 cfu/mL, and then cultured at 30° C. for 3 days.
# The investigation was performed with naked eyes, and the lesion relative areas were investigated until 0 to 100% according to the shortness degrees of the bacterial rot. The anthracnose was investigated by counting the number of lesions occurred on the leaves.
# cucumber leaves = test: Plant growth promotion, width of cucumber leaf; format: in vivo; settings: non-treated = 100.0 (92.1 mm), unit of the source corrected
# Method: The active ingredients (Compounds 5 to 8, 14, and 15) were drenched to the leaves of a plant (pepper, potato, tomato, tobacco, cucumber, and Chinese cabbage), and then, after 7 days, the plant lengths were measured. Since then, the plant disease pathogen was inoculated, and then, after 3 to 5 days, the sizes of the plant leaves were measured and compared with the control group to obtain the relative growth degrees.
# [3] = test system: plant bacterial rot (Pectobacterium carotovorum SCC1); test: Suppression of bacterial rot on pepper leaves (paper disc on cut leaves); format: in vivo; settings: sprayed on the pepper leaves, 1 or 10 ppm
# Method: as §1
# pepper plant = test: Overcoming cold weather-damage on pepper plant (2° C. for 1 day); format: in vivo; settings: then room temperature 3 days
# Method: In order to confirm the immunity-activating effect of the compounds of the present invention, the plants were exposed at the temperature so that they could be artificially damaged from cold weather, and the growth and development were observed. After growing the plants for 6 weeks, the compounds were drenched or sprayed on the leaves and the plants were raised for 1 week. After the plants were exposed under a 2° C. growth room for 1 day, they were raised at room temperature for 3 days. The degrees of the growth and development of the plants were observed and the degrees of the damage from cold weather in the plant were determined. […] The test results are illustrated in the photographs of FIGS. 11 and 12.
# [4] = drench-treated, 1.0 or 10.0 ppm
structure (smiles),measurement,setting,value
COC(=O)CNC(=O)[C@@H](N)CC(C)C [Compound 4] (H-Leu-Gly-OMe),Outbreak of the phytophthora blight on the leaves,[1],significantly decreased
same,Lesion outbreak rate,"[2]; Table 3, tobacco, 1 ppm",47%
same,Lesion outbreak rate,"[2]; Table 3, tobacco, 10 ppm",80%
same,Lesion outbreak rate,"[2]; Table 3, tobacco, 100 ppm",90%
COC(=O)CNC(=O)[C@@H](NC(=O)OC(C)(C)C)C(C)C [Compound 5] (Boc-Val-Gly-OMe),Width of cucumber leaf (relative value to the non-treated group),cucumber leaves; 1.0 ppm,100%
same,Width of cucumber leaf (relative value to the non-treated group),cucumber leaves; 10 ppm,111%
same,Width of cucumber leaf (relative value to the non-treated group),cucumber leaves; 100 ppm,121%
same,Lesion outbreak rate,"[2]; Table 3, tobacco, 1 ppm",73%
same,Lesion outbreak rate,"[2]; Table 3, tobacco, 10 ppm",40%
same,Lesion outbreak rate,"[2]; Table 3, tobacco, 100 ppm",7.7%
COC(=O)CNC(=O)[C@@H](N)C(C)C [Compound 6] (H-Val-Gly-OMe),Width of cucumber leaf (relative value to the non-treated group),cucumber leaves; 1.0 ppm,114%
same,Width of cucumber leaf (relative value to the non-treated group),cucumber leaves; 10 ppm,124%
same,Width of cucumber leaf (relative value to the non-treated group),cucumber leaves; 100 ppm,123%
same,Bacterial rot on pepper leaves as compared with the non-treated group,[3],not found
same,Lesion outbreak rate,"[2]; Table 3, tobacco, 1 ppm",11%
same,Lesion outbreak rate,"[2]; Table 3, tobacco, 10 ppm",2.1%
same,Lesion outbreak rate,"[2]; Table 3, tobacco, 100 ppm",3.5%
COC(=O)C(CC(C)C)NC(=O)C(NC(=O)OC(C)(C)C)C(C)O (stereo not drawn) [Compound 7] (Boc-Thr-Leu-OMe; configuration not given here),Width of cucumber leaf (relative value to the non-treated group),cucumber leaves; 1.0 ppm,110%
same,Width of cucumber leaf (relative value to the non-treated group),cucumber leaves; 10 ppm,121%
same,Width of cucumber leaf (relative value to the non-treated group),cucumber leaves; 100 ppm,121%
same,Lesion outbreak rate,"[2]; Table 3, tobacco, 1 ppm",40%
same,Lesion outbreak rate,"[2]; Table 3, tobacco, 10 ppm",27%
same,Lesion outbreak rate,"[2]; Table 3, tobacco, 100 ppm",20%
COC(=O)C(CC(C)C)NC(=O)C(N)C(C)O (stereo not drawn) [Compound 8] (H-Thr-Leu-OMe; configuration not given here),Width of cucumber leaf (relative value to the non-treated group),cucumber leaves; 1.0 ppm,122%
same,Width of cucumber leaf (relative value to the non-treated group),cucumber leaves; 10 ppm,123%
same,Width of cucumber leaf (relative value to the non-treated group),cucumber leaves; 100 ppm,120%
same,Lesion outbreak rate,"[2]; Table 3, tobacco, 1 ppm",43%
same,Lesion outbreak rate,"[2]; Table 3, tobacco, 10 ppm",57%
same,Lesion outbreak rate,"[2]; Table 3, tobacco, 100 ppm",0%
COC(=O)[C@H](C)NC(=O)CNC(=O)OC(C)(C)C [Compound 14] (Boc-Gly-Ala-OMe),Width of cucumber leaf (relative value to the non-treated group),cucumber leaves; 1.0 ppm,104%
same,Width of cucumber leaf (relative value to the non-treated group),cucumber leaves; 10 ppm,103%
same,Width of cucumber leaf (relative value to the non-treated group),cucumber leaves; 100 ppm,113%
same,Lesion outbreak rate,"[2]; Table 6, tobacco, 1 ppm",50%
same,Lesion outbreak rate,"[2]; Table 6, tobacco, 10 ppm",78%
same,Lesion outbreak rate,"[2]; Table 6, tobacco, 100 ppm",35%
COC(=O)[C@H](C)NC(=O)[C@H](Cc1ccc(O)cc1)NC(=O)OC(C)(C)C [Compound 15],Width of cucumber leaf (relative value to the non-treated group),cucumber leaves; 1.0 ppm,98.9%
same,Width of cucumber leaf (relative value to the non-treated group),cucumber leaves; 10 ppm,113%
same,Width of cucumber leaf (relative value to the non-treated group),cucumber leaves; 100 ppm,112%
same,Lesion outbreak rate,"[2]; Table 6, tobacco, 1 ppm",75%
same,Lesion outbreak rate,"[2]; Table 6, tobacco, 10 ppm",63%
same,Lesion outbreak rate,"[2]; Table 6, tobacco, 100 ppm",50%
COC(=O)C[C@H](NC(=O)OC(C)(C)C)C(=O)N[C@@H](Cc1ccccc1)C(=O)OC [Compound 90] (Boc-Asp(OMe)-Phe-OMe),Cold weather-damage,pepper plant; sprayed on the leaves,no damages observed
same,Lesion outbreak rate,[1]; 0.1 ppm,24 area %
same,Lesion outbreak rate,[1]; 1.0 ppm,7.2 area %
COC(=O)C[C@H](N)C(=O)N[C@@H](Cc1ccccc1)C(=O)OC [Compound 91] (H-Asp(OMe)-Phe-OMe),Cold weather-damage,pepper plant; sprayed on the leaves,no damages observed
same,Effect on suppressing the outbreak of pepper phytophthora blight or bacterial rot as compared with the non-treated control group,[1],excellent
same,Lesion outbreak rate,[1]; 0.1 ppm,14 area %
same,Lesion outbreak rate,[1]; 1.0 ppm,24 area %
C=CCOC(=O)C[C@H](N)C(=O)N[C@@H](Cc1ccccc1)C(=O)OC [Compound 93] (H-Asp(OAll)-Phe-OMe),Bacterial rot on pepper leaves as compared with the non-treated group,[3],not found
same,Cold weather-damage,pepper plant; sprayed on the leaves,no damages observed
same,Effect on suppressing the outbreak of pepper phytophthora blight or bacterial rot as compared with the non-treated control group,[1],excellent
same,Lesion outbreak rate,[1]; 0.1 ppm,35 area %
same,Lesion outbreak rate,[1]; 1.0 ppm,23 area %
COC(=O)[C@H](Cc1ccccc1)NC(=O)[C@@H](N)CC(=O)OCc1ccccc1 [Compound 95] (H-Asp(OBn)-Phe-OMe),Bacterial rot on pepper leaves as compared with the non-treated group,[3],not found
same,Cold weather-damage,pepper plant; drench-treated,no cold weather-damages
same,Cold weather-damage,pepper plant; sprayed on the leaves,no damages observed
same,Outbreak of the phytophthora blight on the leaves,[1],significantly decreased
same,"Lesion formation, pepper phytophthora test",[1]; [4],no the lesion formations
same,Lesion outbreak rate,[1]; 0.1 ppm,9.2 area %
same,Lesion outbreak rate,[1]; 1.0 ppm,3.8 area %
COC(=O)[C@H](Cc1ccccc1)NC(=O)[C@H](CC(=O)OCc1ccccc1)NC(C)=O [Compound 100] (Ac-Asp(OBn)-Phe-OMe),Lesion outbreak rate,[1]; 0.1 ppm,19 area %
same,Lesion outbreak rate,[1]; 1.0 ppm,21 area %
COC(=O)[C@H](Cc1ccccc1)NC(=O)[C@H](CC(=O)OCc1ccccc1)NC(=O)c1ccccc1 [Compound 101] (Bz-Asp(OBn)-Phe-OMe),Lesion outbreak rate,[1]; 0.1 ppm,11 area %
same,Lesion outbreak rate,[1]; 1.0 ppm,27 area %
COC(=O)[C@H](Cc1ccccc1)NC(=O)[C@H](CC(=O)O)NC(C)=O [Compound 102] (Ac-Asp-Phe-OMe),Lesion outbreak rate,[1]; 0.1 ppm,20 area %
same,Lesion outbreak rate,[1]; 1.0 ppm,15 area %
COC(=O)CNC(=O)[C@@H](NC(C)=O)C(C)C [Compound 103] (Ac-Val-Gly-OMe),Lesion outbreak rate,[1]; 0.1 ppm,15 area %
same,Lesion outbreak rate,[1]; 1.0 ppm,28 area %
COC(=O)CNC(=O)[C@H](CC(C)C)NC(C)=O [Compound 104] (Ac-Leu-Gly-OMe),Lesion outbreak rate,[1]; 0.1 ppm,22 area %
same,Lesion outbreak rate,[1]; 1.0 ppm,18 area %
COC(=O)CNC(=O)[C@@H]1CCCN1C(C)=O [Compound 105] (Ac-Pro-Gly-OMe),Lesion outbreak rate,[1]; 0.1 ppm,18 area %
same,Lesion outbreak rate,[1]; 1.0 ppm,21 area %
COC(=O)[C@@H]1CCCN1C(=O)CNC(=O)OC(C)(C)C [Compound 106] (Boc-Gly-Pro-OMe),Lesion outbreak rate,[1]; 0.1 ppm,25 area %
same,Lesion outbreak rate,[1]; 1.0 ppm,26 area %
COC(=O)[C@@H]1CCCN1C(=O)[C@@H](N)Cc1c[nH]c2ccccc12 [Compound 107] (H-Trp-Pro-OMe),Effect on suppressing the outbreak of pepper phytophthora blight or bacterial rot as compared with the non-treated control group,[1],excellent
same,Outbreak of the phytophthora blight on the leaves,[1],significantly decreased
same,"Lesion formation, pepper phytophthora test",[1]; [4],no the lesion formations
same,Lesion outbreak rate,[1]; 0.1 ppm,9.3 area %
same,Lesion outbreak rate,[1]; 1.0 ppm,3.5 area %
same,"Lesion formation, pepper phytophthora test","[1]; sprayed on the leaves, 1 or 0.1 ppm",no the lesion formations
COC(=O)[C@H](C)NC(=O)[C@@H](N)C(C)C [Compound 108] (H-Val-Ala-OMe),Lesion outbreak rate,[1]; 0.1 ppm,14 area %
same,Lesion outbreak rate,[1]; 1.0 ppm,18 area %
CCC(C)C(N)C(=O)NC(C)C(=O)OC (stereo not drawn) [Compound 109],Lesion outbreak rate,[1]; 0.1 ppm,25 area %
same,Lesion outbreak rate,[1]; 1.0 ppm,9.4 area %
